Results from ChEMBL document CHEMBL4359837, “Discovery of 2-(4-Chloro-3-(trifluoromethyl)phenyl)-N-(4-((6,7-dimethoxyquinolin-4-yl)oxy)phenyl)acetamide (CHMFL-KIT-64) as a Novel Orally Available Potent Inhibitor against Broad-Spectrum Mutants of c-KIT Kinase for Gastrointestinal Stromal Tumors” (J Med Chem, 2019).
Blank lines part the entries; values can stand above or below the compound they belong to. Activity calls are given as the source filed them. The calls are words filed in the database; no cut-off is given here.

Assays:
[1] = test system: Mast/stem cell growth factor receptor Kit (Homo sapiens), P10721 [UNDEFINED MUTATION]; settings: GISTT1, 0.1 uM
Description: Inhibition of c-KIT 560 to 578 deletion/T670I mutant in human GISTT1 cells assessed as reduction in c-KIT autophosphorylation at Y703 residue at 0.1 uM measured after 2 hrs by Western blot analysis

[2] = test system: Mast/stem cell growth factor receptor Kit (Homo sapiens), P10721 [UNDEFINED MUTATION]; settings: 0.1 uM
Description: Inhibition of c-KIT 560 to 578 deletion/T670I mutant in human GIST5R assessed as reduction in pS6 phosphorylation at S235 residue at 0.1 uM measured after 2 hrs by Western blot analysis

[3] = test system: Mast/stem cell growth factor receptor Kit (Homo sapiens), P10721 [UNDEFINED MUTATION]; settings: 0.1 uM; remark: listed apart in the source
Description: Inhibition of c-KIT 560 to 578 deletion/T670I mutant in human GIST5R cells assessed as reduction in c-KIT autophosphorylation at Y823 residue at 0.1 uM measured after 2 hrs by Western blot analysis

[4] = test system: Mast/stem cell growth factor receptor Kit (Homo sapiens), P10721 [UNDEFINED MUTATION]; settings: 0.1 uM; remark: listed apart in the source
Description: Inhibition of c-KIT 560 to 578 deletion/T670I mutant in human GIST5R assessed as reduction in STAT3 phosphorylation at Y705 residue at 0.1 uM measured after 2 hrs by Western blot analysis

[5] = test system: Mast/stem cell growth factor receptor Kit (Homo sapiens), P10721 [UNDEFINED MUTATION]; settings: GISTT1, 0.1 uM; remark: listed apart in the source
Description: Inhibition of c-KIT 560 to 578 deletion/T670I mutant in human GISTT1 cells assessed as reduction in c-KIT autophosphorylation at Y719 residue at 0.1 uM measured after 2 hrs by Western blot analysis

[6] = test system: Mast/stem cell growth factor receptor Kit (Homo sapiens), P10721 [UNDEFINED MUTATION]; settings: 0.1 uM; remark: listed apart in the source
Description: Inhibition of c-KIT 560 to 578 deletion/T670I mutant in human GIST5R cells assessed as reduction in c-KIT autophosphorylation at Y719 residue at 0.1 uM measured after 2 hrs by Western blot analysis

[7] = test system: Mast/stem cell growth factor receptor Kit (Homo sapiens), P10721 [UNDEFINED MUTATION]; settings: 0.1 uM; remark: listed apart in the source
Description: Inhibition of c-KIT 560 to 578 deletion/T670I mutant in human GIST5R assessed as reduction in ERK phosphorylation at T202 residue at 0.1 uM measured after 2 hrs by Western blot analysis

[8] = test system: Mast/stem cell growth factor receptor Kit (Homo sapiens), P10721 [UNDEFINED MUTATION]; settings: GISTT1, 0.1 uM; remark: listed apart in the source
Description: Inhibition of c-KIT 560 to 578 deletion mutant in human GISTT1 cells assessed as reduction in ERK phosphorylation at T202 residue at 0.1 uM measured after 2 hrs by Western blot analysis

[9] = test system: Mast/stem cell growth factor receptor Kit (Homo sapiens), P10721 [UNDEFINED MUTATION]; settings: GISTT1, 0.1 uM; remark: listed apart in the source
Description: Inhibition of c-KIT 560 to 578 deletion mutant in human GISTT1 cells assessed as reduction in STAT3 phosphorylation at Y705 residue at 0.1 uM measured after 2 hrs by Western blot analysis

[10] = test system: Mast/stem cell growth factor receptor Kit (Homo sapiens), P10721 [UNDEFINED MUTATION]; settings: GISTT1, 0.1 uM; remark: listed apart in the source
Description: Inhibition of c-KIT 560 to 578 deletion/T670I mutant in human GISTT1 cells assessed as reduction in pS6 phosphorylation at S236 residue at 0.1 uM measured after 2 hrs by Western blot analysis

[11] = Antitumor activity against mouse BAF3(transformed) cells harboring c-KIT Y823D mutant implanted in BALB/c nu mouse assessed as tumor growth inhibition at 40 mg/kg/day, po administered via gavage for 9 days relative to control; type: functional; settings: 216 h, read-out: TGI
[12] = Oral bioavailability in mouse at 10 mg/kg by LC-MS/MS analysis; type: ADME, organism-based; settings: in vivo
[13] = target: T1, Mast/stem cell growth factor receptor Kit (Homo sapiens, UniProt P10721, 560-578DEL/T670I); type: cell-based, GISTT1
[14] = Half life in Beagle dog at 5 mg/kg, po by LC-MS/MS analysis; type: ADME, organism-based, Canis lupus familiaris; settings: in vivo
[15] = target: T2, Platelet-derived growth factor receptor alpha (Homo sapiens, UniProt P16234); assay: Inhibition of recombinant human GST-tagged PDGFRA cytoplasmic domain (550 to 1089 residues) expressed in baculovirus expression system by Z-lyte assay
[16] = target: Macrophage colony-stimulating factor 1 receptor (Homo sapiens, UniProt P07333); assay: Inhibition of recombinant human His-tagged CSF1R cytoplasmic domain (538 to 910 residues) expressed in baculovirus expression system by Z-lyte assay
[17] = target: T1, Mast/stem cell growth factor receptor Kit; type: cell-based, GISTT1; remark: listed apart in the source
[18] = test system: Mus musculus; type: functional, organism-based; settings: BALB/c, 80 mg/kg, TDE = time-dependent effect
[19] = Half life in mouse at 1 mg/kg, iv by LC-MS/MS analysis; type: ADME, organism-based; settings: in vivo
[20] = AUC (0 to t) in mouse at 10 mg/kg, po by LC-MS/MS analysis; type: ADME, organism-based; settings: in vivo
[21] = organism: Homo sapiens; type: functional, cell-based
[22] = test system: GISTT1; type: functional, cell-based; settings: Homo sapiens
[23] = organism: Homo sapiens; type: functional, cell-based; remark: listed apart in the source
[24] = target: T2, Platelet-derived growth factor receptor alpha; assay: Binding affinity to wild-type human partial length PDGFRA (V575 to D1002 residues) expressed in mammalian expression system assessed as residual binding level at 1 uM by Kinomescan method relative to control
[25] = Cmax in mouse at 1 mg/kg, iv by LC-MS/MS analysis; type: ADME, organism-based; design: dose 1 mg/kg, route intravenous; settings: in vivo
[26] = Toxicity in BALB/c nu mouse implanted with mouse BAF3(transformed) cells harboring c-KIT T670I mutant assessed as change in body weight at 40 to 100 mg/kg/day, po administered via gavage for 11 days measured daily during compound dosing; type: organism-based; settings: in vivo, 264 h
[27] = target: Serine/threonine-protein kinase 10 (Homo sapiens) (UniProt O94804); assay: Binding affinity to wild-type human partial length LOK (E16 to V314 residues) expressed in bacterial expression system assessed as residual binding level at 1 uM by Kinomescan method relative to control
[28] = target: Macrophage colony-stimulating factor 1 receptor (Mus musculus) (UniProt P09581); assay: Inhibition of CSF1R in mouse BAF3(transformed) cells assessed as growth inhibition after 72 hrs by CCK8 assay
[29] = test system: Mus musculus; assay: Antitumor activity against mouse BAF3(transformed) cells harboring c-KIT T670I mutant implanted in BALB/c nu mouse assessed as tumor growth inhibition administered via oral gavage for 11 days; type: functional
[30] = Cmax in Sprague-Dawley rat at 10 mg/kg, po by LC-MS/MS analysis; type: ADME, organism-based; design: dose 10 mg/kg, route oral; settings: in vivo
[31] = Toxicity in BALB/c nu mouse implanted with mouse BAF3(transformed) cells harboring c-KIT D820G mutant assessed as change in body weight at 40 to 80 mg/kg/day, po administered via gavage for 9 days measured daily during compound dosing; type: organism-based; settings: in vivo, 216 h
[32] = AUC (0 to t) in Beagle dog at 5 mg/kg, po by LC-MS/MS analysis; type: ADME, organism-based, Canis lupus familiaris; settings: in vivo
[33] = target: T2, Platelet-derived growth factor receptor alpha; type: cell-based; settings: GISTT1
[34] = test system: Mast/stem cell growth factor receptor Kit (Homo sapiens), P10721 [Y823D]; settings: Mus musculus
Description: Inhibition of c-KIT Y823D mutant in mouse BAF3(transformed) cells assessed as growth inhibition after 72 hrs by CCK8 assay

[35] = Antitumor activity against mouse BAF3(transformed) cells harboring c-KIT Y823D mutant implanted in BALB/c nu mouse assessed as tumor growth inhibition at 80 mg/kg/day, po administered via gavage for 9 days relative to control; type: functional; settings: 216 h, read-out: TGI
[36] = test system: Mast/stem cell growth factor receptor Kit (Homo sapiens), P10721 [UNDEFINED MUTATION]; settings: GISTT1
Description: Inhibition of c-KIT 560 to 578 deletion/T670I mutant in human GISTT1 cells assessed as growth inhibition after 72 hrs by CCK8 assay

[37] = test system: Mast/stem cell growth factor receptor Kit (Homo sapiens), P10721 [UNDEFINED MUTATION]; settings: GISTT1; remark: listed apart in the source
Description: Inhibition of c-KIT 560 to 578 deletion mutant in human GISTT1 cells assessed as growth inhibition after 72 hrs by CCK8 assay

[38] = AUC (0 to t) in Beagle dog at 1 mg/kg, iv by LC-MS/MS analysis; type: ADME, organism-based, Canis lupus familiaris; settings: in vivo
[39] = target: T1, Mast/stem cell growth factor receptor Kit; type: cell-based
[40] = Cmax in Sprague-Dawley rat at 1 mg/kg, iv by LC-MS/MS analysis; type: ADME, organism-based; design: dose 1 mg/kg, route intravenous; settings: in vivo
[41] = target: Epithelial discoidin domain-containing receptor 1 (Homo sapiens, UniProt Q08345); assay: Inhibition of human GST-tagged DDR1 catalytic domain (440 to 876 residues) expressed in baculovirus expression system by Lanthascreen Eu-binding assay
[42] = test system: GISTT1; type: functional, cell-based; settings: Homo sapiens; remark: listed apart in the source
[43] = target: Platelet-derived growth factor receptor alpha (Mus musculus) (UniProt P26618); assay: Inhibition of PDGFRA in mouse BAF3(transformed) cells assessed as growth inhibition after 72 hrs by CCK8 assay
[44] = test system: Mus musculus; type: functional, organism-based; settings: BALB/c, 80 mg/kg, TDE = time-dependent effect; remark: listed apart in the source

Sequence of Mast/stem cell growth factor receptor Kit (Homo sapiens), P10721 [UNDEFINED MUTATION] (P10721 whole entry, looked up, change not shown): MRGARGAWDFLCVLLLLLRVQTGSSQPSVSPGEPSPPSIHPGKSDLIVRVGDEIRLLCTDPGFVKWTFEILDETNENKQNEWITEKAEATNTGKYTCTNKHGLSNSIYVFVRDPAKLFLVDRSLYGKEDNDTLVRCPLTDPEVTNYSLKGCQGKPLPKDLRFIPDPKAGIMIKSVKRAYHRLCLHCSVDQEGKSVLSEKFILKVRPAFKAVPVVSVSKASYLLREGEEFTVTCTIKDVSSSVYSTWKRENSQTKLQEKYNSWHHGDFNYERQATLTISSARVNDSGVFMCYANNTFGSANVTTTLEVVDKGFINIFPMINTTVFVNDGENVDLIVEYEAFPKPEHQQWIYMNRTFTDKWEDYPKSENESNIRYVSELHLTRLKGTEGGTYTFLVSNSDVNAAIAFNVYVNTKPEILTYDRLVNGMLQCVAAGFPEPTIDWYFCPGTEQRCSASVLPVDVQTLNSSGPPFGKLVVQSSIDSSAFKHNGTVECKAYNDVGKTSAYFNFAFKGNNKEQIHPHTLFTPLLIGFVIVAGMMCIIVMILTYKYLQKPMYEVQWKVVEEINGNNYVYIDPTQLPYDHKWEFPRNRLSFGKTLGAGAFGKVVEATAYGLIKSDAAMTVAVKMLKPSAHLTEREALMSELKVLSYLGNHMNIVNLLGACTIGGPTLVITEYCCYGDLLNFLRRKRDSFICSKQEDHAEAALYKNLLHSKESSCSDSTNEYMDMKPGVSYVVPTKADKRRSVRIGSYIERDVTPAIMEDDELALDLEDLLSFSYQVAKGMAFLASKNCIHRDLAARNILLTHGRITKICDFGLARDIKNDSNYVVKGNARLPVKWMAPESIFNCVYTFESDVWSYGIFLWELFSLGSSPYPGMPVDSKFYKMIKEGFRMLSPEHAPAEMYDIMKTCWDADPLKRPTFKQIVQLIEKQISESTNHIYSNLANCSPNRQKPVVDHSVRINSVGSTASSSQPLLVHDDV
T1 sequence (P10721 whole entry, looked up, stated change not applied): as the sequence (P10721 whole entry, looked up, change not shown) above
T2 sequence (P16234 whole entry, the tested form may be a part): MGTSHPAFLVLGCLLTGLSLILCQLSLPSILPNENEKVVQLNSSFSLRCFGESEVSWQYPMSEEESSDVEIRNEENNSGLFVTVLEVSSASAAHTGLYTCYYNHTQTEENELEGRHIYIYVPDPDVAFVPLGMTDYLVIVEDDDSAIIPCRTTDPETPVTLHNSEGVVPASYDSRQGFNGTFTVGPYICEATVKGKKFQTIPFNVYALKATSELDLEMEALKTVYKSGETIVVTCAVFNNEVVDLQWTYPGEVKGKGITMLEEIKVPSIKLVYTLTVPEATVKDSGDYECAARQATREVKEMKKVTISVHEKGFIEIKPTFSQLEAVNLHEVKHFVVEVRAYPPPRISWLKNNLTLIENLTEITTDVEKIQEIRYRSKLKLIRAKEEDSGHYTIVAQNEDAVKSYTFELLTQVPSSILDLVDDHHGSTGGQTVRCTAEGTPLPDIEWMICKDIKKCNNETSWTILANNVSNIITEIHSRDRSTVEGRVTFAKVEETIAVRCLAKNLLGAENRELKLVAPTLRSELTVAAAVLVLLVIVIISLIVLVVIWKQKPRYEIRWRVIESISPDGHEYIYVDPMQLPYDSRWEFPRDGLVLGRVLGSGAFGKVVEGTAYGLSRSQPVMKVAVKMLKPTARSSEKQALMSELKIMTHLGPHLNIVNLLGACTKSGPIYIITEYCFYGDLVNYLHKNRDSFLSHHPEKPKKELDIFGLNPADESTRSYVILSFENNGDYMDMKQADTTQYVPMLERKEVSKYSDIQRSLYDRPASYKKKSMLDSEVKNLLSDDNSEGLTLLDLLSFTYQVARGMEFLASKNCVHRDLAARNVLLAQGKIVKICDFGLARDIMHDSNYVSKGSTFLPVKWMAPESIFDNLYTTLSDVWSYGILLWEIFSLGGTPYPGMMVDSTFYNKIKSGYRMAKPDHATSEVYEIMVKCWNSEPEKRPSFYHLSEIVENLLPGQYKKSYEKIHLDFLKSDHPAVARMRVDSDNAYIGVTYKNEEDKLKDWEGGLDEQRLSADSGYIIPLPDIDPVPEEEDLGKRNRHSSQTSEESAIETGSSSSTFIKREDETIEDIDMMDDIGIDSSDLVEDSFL
Sequence of Macrophage colony-stimulating factor 1 receptor (P07333 whole entry, the tested form may be a part): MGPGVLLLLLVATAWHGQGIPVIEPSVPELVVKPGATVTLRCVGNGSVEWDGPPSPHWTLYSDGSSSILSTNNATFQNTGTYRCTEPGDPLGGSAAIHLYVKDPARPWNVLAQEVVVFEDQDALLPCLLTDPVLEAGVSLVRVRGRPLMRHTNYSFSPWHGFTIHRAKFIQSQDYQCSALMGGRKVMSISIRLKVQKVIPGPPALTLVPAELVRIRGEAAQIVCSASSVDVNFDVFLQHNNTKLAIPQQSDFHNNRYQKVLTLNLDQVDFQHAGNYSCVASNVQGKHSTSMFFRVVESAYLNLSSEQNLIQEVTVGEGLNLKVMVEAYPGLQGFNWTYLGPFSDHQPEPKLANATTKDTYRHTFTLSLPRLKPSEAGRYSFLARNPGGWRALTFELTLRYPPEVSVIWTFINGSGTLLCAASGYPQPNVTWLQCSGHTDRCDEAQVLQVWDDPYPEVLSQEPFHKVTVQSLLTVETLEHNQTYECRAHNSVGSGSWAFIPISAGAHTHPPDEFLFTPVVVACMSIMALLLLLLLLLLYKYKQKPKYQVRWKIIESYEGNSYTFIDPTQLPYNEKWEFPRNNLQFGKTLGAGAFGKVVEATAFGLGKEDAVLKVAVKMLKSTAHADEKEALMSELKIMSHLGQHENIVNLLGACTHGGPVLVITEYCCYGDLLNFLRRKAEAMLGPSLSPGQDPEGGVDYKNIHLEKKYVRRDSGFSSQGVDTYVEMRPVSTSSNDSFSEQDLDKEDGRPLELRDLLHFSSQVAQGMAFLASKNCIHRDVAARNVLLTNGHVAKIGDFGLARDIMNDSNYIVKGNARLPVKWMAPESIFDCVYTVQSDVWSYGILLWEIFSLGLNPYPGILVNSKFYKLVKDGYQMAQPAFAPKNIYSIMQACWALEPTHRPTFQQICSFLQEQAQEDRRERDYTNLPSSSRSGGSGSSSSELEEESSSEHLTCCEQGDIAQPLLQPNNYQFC
Sequence of Serine/threonine-protein kinase 10 (Homo sapiens) (O94804 whole entry, looked up, the tested form may be a part): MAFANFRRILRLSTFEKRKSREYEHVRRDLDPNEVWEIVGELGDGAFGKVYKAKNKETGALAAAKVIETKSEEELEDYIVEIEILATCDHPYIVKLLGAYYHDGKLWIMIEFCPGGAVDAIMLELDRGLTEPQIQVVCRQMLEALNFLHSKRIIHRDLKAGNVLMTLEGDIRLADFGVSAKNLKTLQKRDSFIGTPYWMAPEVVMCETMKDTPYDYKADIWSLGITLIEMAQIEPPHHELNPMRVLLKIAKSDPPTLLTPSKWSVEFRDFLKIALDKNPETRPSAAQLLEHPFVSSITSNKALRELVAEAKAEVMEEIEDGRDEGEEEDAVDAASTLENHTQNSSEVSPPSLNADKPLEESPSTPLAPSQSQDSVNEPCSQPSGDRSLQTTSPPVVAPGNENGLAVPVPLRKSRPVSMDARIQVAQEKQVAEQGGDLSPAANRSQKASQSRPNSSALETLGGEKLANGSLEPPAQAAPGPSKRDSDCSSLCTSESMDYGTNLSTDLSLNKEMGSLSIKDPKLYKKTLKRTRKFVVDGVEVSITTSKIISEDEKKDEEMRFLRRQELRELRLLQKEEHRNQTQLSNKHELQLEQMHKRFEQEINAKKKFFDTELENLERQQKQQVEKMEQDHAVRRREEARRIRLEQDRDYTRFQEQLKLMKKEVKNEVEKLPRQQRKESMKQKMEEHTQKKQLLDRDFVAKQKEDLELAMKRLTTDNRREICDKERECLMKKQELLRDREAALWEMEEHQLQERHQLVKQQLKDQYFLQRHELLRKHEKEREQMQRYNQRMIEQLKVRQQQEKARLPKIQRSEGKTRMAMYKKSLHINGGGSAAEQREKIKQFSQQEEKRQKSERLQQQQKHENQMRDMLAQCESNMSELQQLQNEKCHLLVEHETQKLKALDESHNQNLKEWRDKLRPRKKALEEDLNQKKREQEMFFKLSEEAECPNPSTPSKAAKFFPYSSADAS

- inhibition [1]: Active
- inhibition [2]: Active
- inhibition [3]: Active
- inhibition [4]: Active
- inhibition [5]: Active
- inhibition [6]: Active
- inhibition [7]: Active
- inhibition [8]: Active
- inhibition [9]: Active
- inhibition [10]: Active
SMILES: CCN(CC)CCNC(=O)c1c(C)[nH]c(/C=C2\C(=O)Nc3ccc(F)cc32)c1C [SUNITINIB]

SMILES: COc1cc2nccc(Oc3ccc(NC(=O)Cc4ccc(Cl)c(C(F)(F)F)c4)cc3)c2cc1OC
- inhibition in vivo at 40 mg/kg/day [11]: 81.8%
- bioavailability [12]: 43%
- EC50 [13]: < 100 nM
- half-life [14]: 19.4 h
- IC50 [15]: 25 nM
- IC50 [16]: 18 nM
- EC50 [17]: < 100 nM
- inhibition [18]: Tde
- half-life [19]: 5.4 h
- AUC(0-t) [20]: 12600 ng·h/mL
- Activity [21]: Dose-dependent effect
- TGI [22]: Dose-dependent effect
- Activity [23]: Dose-dependent effect
- Activity [24]: < 1%
- Cmax [25]: 520 ng/mL
- Activity [26]: Non-Toxic
- Activity [27]: < 1%
- GI50 [28]: 3 nM
- TGI [29]: Dose-dependent effect
- Cmax [30]: 1640 ng/mL
- Activity [31]: Non-Toxic
- AUC(0-t) [32]: 19100 ng·h/mL
- inhibition [33]: Active
- GI50 [34]: 35 nM
- inhibition in vivo at 80 mg/kg/day [35]: 90.2%
- GI50 [36]: 6 nM
- GI50 [37]: 6 nM
- AUC(0-t) [38]: 5320 ng·h/mL
- EC50 [39]: < 100 nM
- Cmax [40]: 660 ng/mL
- IC50 [41]: 135 nM
- Activity [42]: Dose-dependent effect
- GI50 [43]: 1 nM
- inhibition [44]: Tde
